Data on seven compounds can be found in ChEMBL document CHEMBL1201862, “PubChem BioAssay data set” (2004).

Some test systems named below: NCI-H226; EKVX; SN12C; ACHN; HT-29; IGROV-1; OVCAR-3; T47D; MDA-MB-231; RXF 393; Malme-3M; HCT-116; MDA-MB-435; CCRF-CEM; TK-10; PC-3; OVCAR-4; UO-31; NCI/ADR-RES; HL-60.
Common to all, as to assay: DTP human tumour cell line panel, 48 h

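Tested at 5 concentrations; 48 h exposure; 96-well plates; endpoints linearly interpolated, else capped at highest concentration. The concentration for 50% growth inhibition is given as GI50.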 The source made the active and inactive calls. Cut-off read from the data, not from the text of the source: active = GI50 up to about 1.1 µM and inactive = higher.

For the compound `C[C@@H](NC(=O)c1ccc(CNC(=O)/C=C/c2cccc(Oc3ccccc3)c2)cc1)c1ccccc1`, the GI50 was 28.4 µM (inactive) with NCI-H226; 21.8 µM (inactive) in the assay with EKVX; > 100 µM (inactive) in the assay on SN12C; 12.5 µM (inactive) with ACHN; 22.6 µM (inactive) in the assay with HT-29; 48.1 µM (inactive) with IGROV-1. Besides, the GI50 with OVCAR-3 is 72.1 µM (inactive); with T47D, 27.7 µM (inactive); in the assay with MDA-MB-231, > 100 µM (inactive); in the assay with RXF 393, 2.51 µM (inactive); with Malme-3M, > 76.2 µM (inactive); with HCT-116, > 69.3 µM (inactive). Further, the GI50 in the assay on MDA-MB-435 was > 100 µM (inactive); with CCRF-CEM, > 100 µM (inactive); in the assay on TK-10, 24.9 µM (inactive); in the assay with PC-3 it was > 42.4 µM (inactive); in the assay on OVCAR-4, > 100 µM (inactive); in the assay on UO-31 it was 10.7 µM (inactive). Further, the GI50 in the assay with NCI/ADR-RES and with HL-60 was > 100 µM (inactive) throughout.

As to `O=C(NCCNCCNC(=O)C(F)(F)F)C(F)(F)F`, the GI50 in the assay with NCI-H226, with EKVX, with SN12C, with ACHN, with HT-29 and with IGROV-1 was > 100 µM (inactive) in each case. Further, the GI50 with OVCAR-3, in the assay on T47D, with MDA-MB-231, in the assay on RXF 393, in the assay with Malme-3M and in the assay on HCT-116 was > 100 µM (inactive) in each case. The GI50 in the assay on MDA-MB-435, in the assay with CCRF-CEM, with TK-10, in the assay with PC-3, in the assay with OVCAR-4 and in the assay with UO-31 was > 100 µM (inactive) each time. Moreover, the GI50 with NCI/ADR-RES and in the assay on HL-60 was > 100 µM (inactive) throughout.

In the case of `C[n+]1c2ccccc2n2c3ccccc3c(NCCc3ccccn3)c(C#N)c21`, the GI50 is 2.55 µM (inactive) with NCI-H226; 4.06 µM (inactive) in the assay on EKVX; 1.23 µM (inactive) in the assay with SN12C; 1.49 µM (inactive) in the assay on ACHN; 2.99 µM (inactive) in the assay on HT-29; 2.34 µM (inactive) in the assay on OVCAR-3. Further, the GI50 with T47D is 2.36 µM (inactive); in the assay with MDA-MB-231 it was 1.42 µM (inactive); with RXF 393 it was 1.01 µM (active); in the assay with Malme-3M, 2.81 µM (inactive); in the assay on HCT-116, 0.933 µM (active); in the assay with MDA-MB-435, 1.47 µM (inactive). Also, the GI50 in the assay on CCRF-CEM is 1.25 µM (inactive); in the assay on TK-10, 1.14 µM (inactive); in the assay with PC-3, 2.55 µM (inactive); with OVCAR-4 it was 0.804 µM (active); in the assay on UO-31 it was 1.76 µM (inactive); in the assay on NCI/ADR-RES, 13.8 µM (inactive). Further, the GI50 in the assay on HL-60 was 3.13 µM (inactive).

Take `[O-]/[N+](=N\c1ccccc1CO)c1ccccc1CO`: the GI50 with NCI-H226, in the assay on EKVX, with SN12C, with HT-29, in the assay with OVCAR-3 and with T47D was > 100 µM (inactive) throughout. Moreover, the GI50 in the assay with MDA-MB-231, in the assay with RXF 393, in the assay with Malme-3M, in the assay on HCT-116, in the assay with MDA-MB-435 and in the assay with CCRF-CEM was > 100 µM (inactive) in each case. Besides, the GI50 in the assay on TK-10, in the assay on PC-3, with OVCAR-4, in the assay with UO-31, in the assay with NCI/ADR-RES and in the assay with HL-60 was > 100 µM (inactive) each time.

In the case of `Nc1cccc(Nc2nc3ccccc3nc2NS(=O)(=O)c2ccccc2)c1`, the GI50 in the assay on NCI-H226 is 38 µM (inactive); in the assay with EKVX, 43.9 µM (inactive); in the assay on SN12C it was 26 µM (inactive); in the assay on ACHN it was 27.5 µM (inactive); with HT-29, 27.1 µM (inactive); in the assay on IGROV-1 it was 24.5 µM (inactive). Further, the GI50 in the assay on OVCAR-3 is 17.7 µM (inactive); with T47D it was 24.7 µM (inactive); in the assay on MDA-MB-231, 14.8 µM (inactive); with RXF 393 it was 18.3 µM (inactive); with Malme-3M, 28.6 µM (inactive); with HCT-116 it was 17.3 µM (inactive). The GI50 was 23.6 µM (inactive) in the assay on MDA-MB-435; 15.2 µM (inactive) in the assay with CCRF-CEM; 42 µM (inactive) in the assay with TK-10; 19.5 µM (inactive) with PC-3; 15.6 µM (inactive) with OVCAR-4; 16 µM (inactive) with UO-31. The GI50 in the assay on NCI/ADR-RES is 27.3 µM (inactive); in the assay with HL-60, 20.7 µM (inactive).

On to `O=C1NC(=O)[C@@H](OCC2CCCCC2)[C@@H]2OCC3OC(C(O)C3O)C12` (stereo not given in full), for which the GI50 with NCI-H226, with EKVX, in the assay on SN12C, with ACHN, in the assay with HT-29 and in the assay with IGROV-1 was > 100 µM (inactive) throughout. Further, the GI50 in the assay on OVCAR-3, in the assay with T47D, in the assay on MDA-MB-231, in the assay on RXF 393, in the assay with Malme-3M and in the assay with HCT-116 was > 100 µM (inactive) each time. The GI50 in the assay on MDA-MB-435, with CCRF-CEM, in the assay with TK-10, with PC-3, in the assay with OVCAR-4 and in the assay with NCI/ADR-RES was > 100 µM (inactive) in each case. For the same compound, the GI50 with HL-60 is > 100 µM (inactive).

For the compound `COc1cc2c(cc1OC)C(=O)N(c1ccc(OCCN3CCCC3)cc1)C2`, the GI50 in the assay on NCI-H226, in the assay with EKVX, with SN12C, with ACHN, in the assay on HT-29 and with IGROV-1 was > 100 µM (inactive) each time. The GI50 in the assay on OVCAR-3, in the assay on T47D, in the assay on MDA-MB-231, with RXF 393, with Malme-3M and with HCT-116 was > 100 µM (inactive) in each case. Moreover, the GI50 in the assay with MDA-MB-435, in the assay with CCRF-CEM, in the assay with TK-10, in the assay with PC-3, in the assay on OVCAR-4 and in the assay on NCI/ADR-RES was > 100 µM (inactive) throughout. Also, the GI50 in the assay on HL-60 was > 100 µM (inactive).
